# From PubChem BioAssay AID328 (DTP/NCI, 2004)
# Values joined by “and” are separate entries in the source; they are usually repeats but may differ in a detail not shown here. Equal entries are not always repeated. Toxic doses and inconclusive results are not listed.
# System: BDF1 mice, P388 leukemia ip, median survival T/C
# Experiment: NCI In Vivo Anticancer Drug Screen. Data for tumor model P388 Leukemia (intraperitoneal) in B6D2F1 (BDF1) mice
# Conditions: endpoint: median survival time, higher = longer survival
# Outline: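 Read-out is survival of treated animals expressed relative to the vehicle group, as a T/C ratio.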
# [1] = dose: 100.0 mg/kg/injection, schedule: Q04DX003 (ip), vehicle: saline with Tween-80
# [2] = dose: 200.0 mg/kg/injection, schedule: Q04DX003 (ip), vehicle: saline with Tween-80
# [3] = dose: 400.0 mg/kg/injection, schedule: Q04DX003 (ip), vehicle: saline with Tween-80
# [4] = dose: 50.0 mg/kg/injection, schedule: Q01DX005 (ip), vehicle: saline with Tween-80
# [5] = dose: 100.0 mg/kg/injection, schedule: Q01DX005 (ip), vehicle: saline with Tween-80
# [6] = dose: 25.0 mg/kg/injection, schedule: Q01DX009 (ip), vehicle: saline with Tween-80
# [7] = dose: 50.0 mg/kg/injection, schedule: Q01DX009 (ip), vehicle: saline with Tween-80
# [8] = dose: 100.0 mg/kg/injection, schedule: Q01DX009 (ip), vehicle: saline with Tween-80
# [9] = dose: 200.0 mg/kg/injection, schedule: Q01DX009 (ip), vehicle: saline with Tween-80
# [10] = dose: 100.0 mg/kg/injection, schedule: Q04DX003 (ip), vehicle: Klucel (hydroxypropylcellulose) (HPC)
# [11] = dose: 200.0 mg/kg/injection, schedule: Q04DX003 (ip), vehicle: Klucel (hydroxypropylcellulose) (HPC)
# [12] = dose: 400.0 mg/kg/injection, schedule: Q04DX003 (ip), vehicle: Klucel (hydroxypropylcellulose) (HPC)
# [13] = dose: 100.0 mg/kg/injection, schedule: Q04DX003 (ip), vehicle: saline
# [14] = dose: 200.0 mg/kg/injection, schedule: Q04DX003 (ip), vehicle: saline
smiles,measurement,setting,value
CCCCCCCC(=O)Nc1c(C)cc(C)cc1C,T/C,[1],109 % of control
same,T/C,[2],100 % of control
same,T/C,[3],109 % of control
Cc1cc2nc(N)sc2cc1C,T/C,"dose: 12.5 mg/kg/injection, schedule: Q01DX009 (ip), vehicle: other",115 % of control
same,T/C,"dose: 25.0 mg/kg/injection, schedule: Q01DX009 (ip), vehicle: other",105 % of control
Cc1ccc(S(=O)(=O)OC2CCCCCCCCCCC2=O)cc1 (stereo not drawn),T/C,"dose: 25.0 mg/kg/injection, schedule: Q04DX003 (ip), vehicle: other",99 % of control
same,T/C,"dose: 50.0 mg/kg/injection, schedule: Q04DX003 (ip), vehicle: other",96 % of control
same,T/C,"dose: 100.0 mg/kg/injection, schedule: Q04DX003 (ip), vehicle: other",95 % of control
[N-]=[N+]=CC(=O)CCC(N)C(=O)O (stereo not drawn),T/C,"dose: 0.03 mg/kg/injection, schedule: Q01DX010 (ip), vehicle: saline",113 % of control
same,T/C,"dose: 0.1 mg/kg/injection, schedule: Q01DX010 (ip), vehicle: saline",170 % of control
same,T/C,"dose: 0.1 mg/kg/injection, schedule: Q01DX010 (ip), vehicle: water",150 % of control
same,T/C,"dose: 0.2 mg/kg/injection, schedule: Q01DX010 (ip), vehicle: saline",95 % of control and 100 % of control
same,T/C,"dose: 0.2 mg/kg/injection, schedule: Q01DX010 (ip), vehicle: water",190 % of control
same,T/C,"dose: 0.4 mg/kg/injection, schedule: Q01DX010 (ip), vehicle: water",155 % of control
same,T/C,"dose: 0.6 mg/kg/injection, schedule: Q01DX010 (ip), vehicle: water",95 % of control and 120 % of control
same,T/C,"dose: 0.8 mg/kg/injection, schedule: Q01DX010 (ip), vehicle: water",100 % of control
same,T/C,"dose: 2.5 mg/kg/injection, schedule: Q02DX005 (oral), vehicle: other",163 % of control
same,T/C,"dose: 5.0 mg/kg/injection, schedule: Q02DX005 (oral), vehicle: other",159 % of control
same,T/C,"dose: 10.0 mg/kg/injection, schedule: Q02DX005 (oral), vehicle: other",186 % of control
same,T/C,"dose: 15.0 mg/kg/injection, schedule: Q02DX005 (oral), vehicle: other",218 % of control
same,T/C,"dose: 20.0 mg/kg/injection, schedule: Q02DX005 (oral), vehicle: other",86 % of control
CC(=O)CC(C)=O.CC(=O)CC(C)=O.O.O.[Co],T/C,"dose: 22.0 mg/kg/injection, schedule: Q04DX003 (ip), vehicle: saline with Tween-80",105 % of control
same,T/C,"dose: 33.0 mg/kg/injection, schedule: Q04DX003 (ip), vehicle: saline with Tween-80",113 % of control
same,T/C,"dose: 75.0 mg/kg/injection, schedule: Q04DX003 (ip), vehicle: saline with Tween-80",102 % of control
COC1=CCC23C(=O)C=CC(=O)C2(C1)C(=O)c1ccccc1C3=O (stereo not drawn),T/C,"dose: 3.12 mg/kg/injection, schedule: Q04DX003 (ip), vehicle: saline with Tween-80",105 % of control
same,T/C,"dose: 6.25 mg/kg/injection, schedule: Q04DX003 (ip), vehicle: saline with Tween-80",113 % of control
same,T/C,"dose: 12.5 mg/kg/injection, schedule: Q04DX003 (ip), vehicle: saline with Tween-80",113 % of control
CCOC(=O)CCC(=O)CC(O)(C(F)(F)F)C(F)(F)Cl (stereo not drawn),T/C,[1],100 % of control
same,T/C,[2],90 % of control
same,T/C,[3],95 % of control
CC(N)(/C=C/c1ccccc1)C(=O)O (stereo not drawn),T/C,[4],101 % of control
same,T/C,[5],97 % of control
same,T/C,"dose: 200.0 mg/kg/injection, schedule: Q01DX005 (ip), vehicle: saline with Tween-80",113 % of control
CCCCCCCOc1ccc(OCCCC[N+]2(CC)CCCCC2)cc1,T/C,"dose: 6.25 mg/kg/injection, schedule: Q01DX009 (ip), vehicle: saline",100 % of control
C=CCOc1ccccc1OC,T/C,[6],100 % of control
same,T/C,[7],113 % of control
same,T/C,[8],107 % of control and 113 % of control
same,T/C,[1],100 % of control
same,T/C,[9],100 % of control
same,T/C,[2],113 % of control
CC(C)(C)NCCC(O)c1cc2c(Cl)cc(Cl)cc2c2cc(C(F)(F)F)ccc12 (stereo not drawn),T/C,"dose: 12.5 mg/kg/injection, schedule: Q01DX009 (ip), vehicle: saline with Tween-80",90 % of control
same,T/C,[6],106 % of control
same,T/C,[7],108 % of control and 114 % of control
O=[N+]([O-])c1ccc(NS(=O)(=O)c2cc(Cl)ccc2Cl)c([N+](=O)[O-])c1,T/C,[7],105 % of control
same,T/C,[8],102 % of control
same,T/C,[9],110 % of control
NC(=S)N/N=C\c1[nH]c(=O)nc2ccccc12,T/C,[10],100 % of control
same,T/C,[11],100 % of control
same,T/C,[12],95 % of control
O=C(Nc1ccc(Nc2ccncc2)cc1)c1ccc([N+](=O)[O-])cc1,T/C,[10],90 % of control
same,T/C,[11],90 % of control
same,T/C,[12],118 % of control
c1ccc(CNc2ncnc3[nH]ncc23)cc1,T/C,"dose: 8.0 mg/kg/injection, schedule: Q01DX010 (ip), vehicle: saline",86 % of control and 115 % of control
same,T/C,"dose: 16.0 mg/kg/injection, schedule: Q01DX010 (ip), vehicle: saline",86 % of control and 100 % of control
same,T/C,"dose: 32.0 mg/kg/injection, schedule: Q01DX010 (ip), vehicle: saline",95 % of control and 100 % of control
same,T/C,"dose: 64.0 mg/kg/injection, schedule: Q01DX010 (ip), vehicle: saline",100 % of control
COc1ccc(C2(C(=O)O)CC2)cc1,T/C,[8],111 % of control
same,T/C,[1],109 % of control
same,T/C,[9],100 % of control
same,T/C,[2],109 % of control
same,T/C,"dose: 400.0 mg/kg/injection, schedule: Q01DX009 (ip), vehicle: saline with Tween-80",96 % of control
same,T/C,[3],113 % of control
CC(C)CCSc1nc(N)nc2nc[nH]c12,T/C,"dose: 100.0 mg/kg/injection, schedule: Q01DX009 (ip), vehicle: other",86 % of control
same,T/C,[1],100 % of control
same,T/C,"dose: 200.0 mg/kg/injection, schedule: Q01DX009 (ip), vehicle: other",90 % of control
same,T/C,[2],109 % of control
same,T/C,"dose: 400.0 mg/kg/injection, schedule: Q01DX009 (ip), vehicle: other",109 % of control
same,T/C,[3],109 % of control
CCOC(=O)CCN1CCCCCC1,T/C,"dose: 25.0 mg/kg/injection, schedule: Q01DX009 (ip), vehicle: saline",91 % of control
same,T/C,"dose: 50.0 mg/kg/injection, schedule: Q01DX009 (ip), vehicle: saline",120 % of control
same,T/C,"dose: 100.0 mg/kg/injection, schedule: Q01DX009 (ip), vehicle: saline",95 % of control
same,T/C,[13],100 % of control
same,T/C,"dose: 200.0 mg/kg/injection, schedule: Q01DX009 (ip), vehicle: saline",92 % of control
same,T/C,[14],100 % of control
same,T/C,"dose: 400.0 mg/kg/injection, schedule: Q04DX003 (ip), vehicle: saline",118 % of control
N/C(=N\OC(=O)NC(Cl)=C(Cl)Cl)c1ccc(Cl)cc1,T/C,[4],92 % of control
same,T/C,[5],114 % of control
COc1cc2c(cc1OC)C(OC)N(C)c1c-2ccc2cc(OC)c(OC)cc12 (stereo not drawn),T/C,"dose: 100.0 mg/kg/injection, schedule: Q04DX003 (ip), vehicle: water",161 % of control
same,T/C,"dose: 200.0 mg/kg/injection, schedule: Q04DX003 (ip), vehicle: water",161 % of control
same,T/C,"dose: 300.0 mg/kg/injection, schedule: Q04DX003 (ip), vehicle: water",166 % of control
same,T/C,"dose: 400.0 mg/kg/injection, schedule: Q04DX003 (ip), vehicle: water",102 % of control
Nc1nnc(N)s1,T/C,"dose: 100.0 mg/kg/injection, schedule: Q04DX003 (ip), vehicle: saline sonified",100 % of control
same,T/C,"dose: 200.0 mg/kg/injection, schedule: Q04DX003 (ip), vehicle: saline sonified",100 % of control
same,T/C,"dose: 400.0 mg/kg/injection, schedule: Q04DX003 (ip), vehicle: saline sonified",100 % of control
C[S+](C)CC(=O)c1ccccc1,T/C,"dose: 50.0 mg/kg/injection, schedule: Q01DX001 (ip), vehicle: saline",116 % of control
same,T/C,"dose: 50.0 mg/kg/injection, schedule: Q04DX003 (ip), vehicle: saline",91 % of control
same,T/C,"dose: 100.0 mg/kg/injection, schedule: Q01DX001 (ip), vehicle: saline",116 % of control
same,T/C,[13],95 % of control
same,T/C,"dose: 200.0 mg/kg/injection, schedule: Q01DX001 (ip), vehicle: saline",112 % of control
same,T/C,[14],95 % of control
CC(C)C(=O)Nc1ccc(Cl)cc1,T/C,"dose: 100.0 mg/kg/injection, schedule: Q01DX001 (ip), vehicle: saline with Tween-80",100 % of control
same,T/C,"dose: 200.0 mg/kg/injection, schedule: Q01DX001 (ip), vehicle: saline with Tween-80",100 % of control
same,T/C,"dose: 400.0 mg/kg/injection, schedule: Q01DX001 (ip), vehicle: saline with Tween-80",100 % of control
